Measurements as given in US8207172B2 (Bayer Intellectual Property GmbH, priority 2004, dated 2012).

Tests used:
[1] = tested on: A431 cells (human epidermoid carcinoma); assay: In vitro tumor cell proliferation assay (Cell Titer-Glo luminescent cell viability), A431; type: cell-based; details: A-431, 72 h, 72 hours of drug exposure, ATP luminescence readout, read-out: IC50, anti-proliferative activity (inhibition of cell proliferation)
Excerpt: (§1) In vitro Tumor Cell Proliferation Assay
(§2) The tumor cell proliferation assay used to test the compounds of the present invention involves a readout called Cell Titer-Glow® Luminescent Cell Viability Assay developed by Promega® (Cunningham, B A “A Growing Issue: Cell Proliferation Assays, Modern kits ease quantification of cell growth” The Scientist 2001, 15(13), 26, and Crouch, S P et al., “The use of ATP bioluminescence as a measure of cell proliferation and cytotoxicity” Journal of Immunological Methods 1993, 160, 81-88), that measures inhibition of cell proliferation. Generation of a luminescent signal corresponds to the amount of ATP present, which is directly proportional to the number of metabolically active (proliferating) cells.
(§3) A431cells (human epidermoid carcinoma, ATCC […]) and BT474 (human breast carcinoma, ATCC […]) were plated at a density of 2.5×10^3 cells/well in 96 well black-clear bottom tissue culture plates in RPMI media with 10% Fetal Bovine Serum and incubated at 37° C. Twenty-four hours later, test compounds are added at a final concentration range from as high […] to as low 64 pM depend on the activities of the tested compounds in serial dilutions at a final DMSO concentration of 0.1%. Cells were incubated for 72 hours at 37° C. in complete growth media after addition of the test compound. After 72 hours of drug exposure, the plates were equilibrated to room temperature for approximately 30 min. Then, using a Promega Cell Titer Glo Luminescent® assay kit, lysis buffer containing 100 microliters of the enzyme luciferase and its substrate, luciferin mixture, was added to each well. The plates were mixed for 2 min on orbital shaker to ensure cell lysis and incubated for 10 min at room temperature to stabilize luminescence signal. The samples were read on VICTOR 2 using Luminescence protocol, and analyzed with Analyze5 software to generate IC50 values.

[2] = tested on: BT474 (human breast carcinoma); assay: In vitro tumor cell proliferation assay (Cell Titer-Glo luminescent cell viability), BT474; type: cell-based; details: BT-474, 72 h, BT474 cells, 72 hours of drug exposure, ATP luminescence readout, read-out: IC50, anti-proliferative activity (inhibition of cell proliferation)
Excerpt: as §1, §2, §3

Row | IC50 [1] [µM] | IC50 [2] [µM] | Structure (SMILES)
1 | ≤ 50 |  | Cc1cccc(COc2ccc(Nc3ncnc4sc5c(c34)CCc3nn(C[C@H](O)CO)cc3-5)cc2Cl)n1 [Example 359, (2S)-3-[6-({3-chloro-4-[(6-methylpyridin-2-yl)methoxy]phenyl}amino)-4,5-dihydro-2H-pyrimido[5′,4′:4,5]thieno[2,3-e]indazol-2-yl]propane-1,2-diol]
2 | ≤ 5 |  | OC[C@@H](O)Cn1cc2c(n1)CCc1c-2sc2ncnc(Nc3ccc(OCc4ccccc4)c(Cl)c3)c12 [Example 357, (2S)-3-(6-{[4-(benzyloxy)-3-chlorophenyl]amino}-4,5-dihydro-2H-pyrimido[5′,4′:4,5]thieno[2,3-e]indazol-2-yl)propane-1,2-diol]
3 | ≤ 50 |  | OCC(CO)n1ncc2c1CCc1c-2sc2ncnc(Nc3ccc(OCc4cccc(F)c4)c(Cl)c3)c12 [Example 361, 2-[6-({3-chloro-4-[(3-fluorobenzyl)oxy]phenyl}amino)-4,5-dihydro-3H-pyrimido[5′,4′:4,5]thieno[2,3-e]indazol-3-yl)propane-1,3-diol]
4 | ≤ 50 |  | Cc1cccc(COc2ccc(Nc3ncnc4sc5c(c34)CCc3nn(C[C@@H](O)CO)cc3-5)cc2Cl)n1 [Example 352, (2R)-3-[6-({3-chloro-4-[(6-methylpyridin-2-yl)methoxy]phenyl}amino)-4,5-dihydro-2H-pyrimido[5′,4′:4,5]thieno[2,3-e]indazol-2-yl]propane-1,2-diol]
5 | ≤ 50 |  | Fc1cccc(COc2ccc(Nc3ncnc4sc5c(c34)CCc3c-5cnn3CCBr)cc2Cl)c1 [Example 81, 3-(2-bromoethyl)-N-{3-chloro-4-[(3-fluorobenzyl)oxy]phenyl}-4,5-dihydro-3H-pyrimido[5′,4′:4,5]thieno[2,3-e]indazol-6-amine]
6 | ≤ 5 |  | OCC(CO)n1cc2c(n1)CCc1c-2sc2ncnc(Nc3ccc(OCc4cccc(F)c4)c(Cl)c3)c12 [Example 360, 2-[6-({3-chloro-4-[(3-fluorobenzyl)oxy]phenyl}amino)-4,5-dihydro-2H-pyrimido[5′,4′:4,5]thieno[2,3-e]indazol-2-yl]propane-1,3-diol]
7 | ≤ 5 |  | OCC(CO)n1cc2c(n1)CCc1c-2sc2ncnc(Nc3ccc4c(cnn4Cc4cccc(F)c4)c3)c12 [Example 363, 2-(6-{[1-(3-fluorobenzyl)-1H-indazol-5-yl]amino}-4,5-dihydro-2H-pyrimido[5′,4′:4,5]thieno[2,3-e]indazol-2-yl)propane-1,3-diol]
8 | ≤ 5 |  | OC[C@H](O)Cn1cc2c(n1)CCc1c-2sc2ncnc(Nc3ccc(OCc4ccccc4)c(Cl)c3)c12 [Example 355, (2R)-3-(6-{[4-(benzyloxy)-3-chlorophenyl]amino}-4,5-dihydro-2H-pyrimido[5′,4′:4,5]thieno[2,3-e]indazol-2-yl)propane-1,2-diol]

The remaining lines, values behind:

Row | Structure (SMILES) | IC50 [1] [µM] | IC50 [2] [µM]
9 | OC[C@@H](O)Cn1cc2c(n1)CCc1c-2sc2ncnc(Nc3ccc(OCc4ccccn4)c(Cl)c3)c12 [Example 351, (2S)-3-(6-{[3-chloro-4-(pyridin-2-ylmethoxy)phenyl]amino}-4,5-dihydro-2H-pyrimido[5′,4′:4,5]thieno[2,3-e]indazol-2-yl)propane-1,2-diol] | ≤ 5 | 
10 | OC[C@H](O)Cn1cc2c(n1)CCc1c-2sc2ncnc(Nc3ccc4c(cnn4Cc4ccccc4)c3)c12 [Example 353, (2R)-3-{6-[(1-benzyl-1H-indazol-5-yl)amino]-4,5-dihydro-2H-pyrimido[5′,4′:4,5]thieno[2,3-e]indazol-2-yl}propane-1,2-diol] | ≤ 5 | 
11 | CC(C)(C)OC(=O)N1CCC(CCn2cc3c(n2)CCc2c-3sc3ncnc(Nc4ccc(OCc5cccc(F)c5)c(Cl)c4)c23)CC1 [Example 246, tert-butyl 4-{2-[6-({3-chloro-4-[(3-fluorobenzyl)oxy]phenyl}amino)-4,5-dihydro-2H-pyrimido[5′,4′:4,5]thieno[2,3-e]indazol-2-yl]ethyl}piperidine-1-carboxylate] |  | ≤ 5
12 | CN1CCN(CCn2cc3c(n2)CCc2c-3sc3ncnc(Nc4ccc(OCc5cscn5)c(Cl)c4)c23)CC1 [Example 347, N-[3-chloro-4-(1,3-thiazol-4-ylmethoxy)phenyl]-2-[2-(4-methylpiperazin-1-yl)ethyl]-4,5-dihydro-2H-pyrimido[5′,4′:4,5]thieno[2,3-e]indazol-6-amine bis(trifluoroacetate)] | ≤ 50 | 
13 | OC[C@@H](O)Cn1cc2c(n1)CCc1c-2sc2ncnc(Nc3ccc4c(cnn4Cc4cccc(F)c4)c3)c12 [Example 356, (2S)-3-(6-{[1-(3-fluorobenzyl)-1H-indazol-5-yl]amino}-4,5-dihydro-2H-pyrimido[5′,4′:4,5]thieno[2,3-e]indazol-2-yl)propane-1,2-diol] | ≤ 5 | 
14 | OC[C@@H](O)Cn1cc2c(n1)CCc1c-2sc2ncnc(Nc3ccc4c(cnn4Cc4ccccc4)c3)c12 [Example 358, (2S)-3-{6-[(1-benzyl-1H-indazol-5-yl)amino]-4,5-dihydro-2H-pyrimido[5′,4′:4,5]thieno[2,3-e]indazol-2-yl}propane-1,2-diol] | ≤ 5 | 
15 | OC[C@@H](O)Cn1cc2c(n1)CCc1c-2sc2ncnc(Nc3ccc(F)c(Cl)c3)c12 [Example 43, (S)-3-[6-(3-Chloro-4-fluoro-phenylamino)-4,5-dihydro-10-thia-2,3,7,9-tetraaza-cyclopenta[a]fluoren-2-yl}-propane-1,2-diol] | ≤ 5 | 
16 | CN1CCN(CCn2cc3c(n2)CCc2c-3sc3ncnc(Nc4ccc(Cc5cccnc5)cc4)c23)CC1 [Example 348, 2-[2-(4-methylpiperazin-1-yl)ethyl]-N-[4-(pyridin-3-ylmethyl)phenyl]-4,5-dihydro-2H-pyrimido[5′,4′:4,5]thieno[2,3-e]indazol-6-amine] | ≤ 50 | 
17 | OCC(CO)n1ncc2c1CCc1c-2sc2ncnc(Nc3ccc4c(cnn4Cc4cccc(F)c4)c3)c12 [Example 362, 2-(6-{[1-(3-fluorobenzyl)-1H-indazol-5-yl]-amino}-4,5-dihydro-3H-pyrimido[5′,4′:4,5]thieno[2,3-e]indazol-3-yl)propane-1,3-diol] | ≤ 5 | 
18 | Fc1ccc(Nc2ncnc3sc4c(c23)CCc2nn(CCN3CCNCC3)cc2-4)cc1Cl [Example 20, N-(3-chloro-4-fluorophenyl)-2-(2-piperazin-1-ylethyl)-4,5-dihydro-2H-pyrimido[5′,4′:4,5]thieno[2,3-e]indazol-6-amine] | ≤ 5 | 
19 | CN1CCN(CCn2cc3c(n2)CCc2c-3sc3ncnc(Nc4cccc(Cl)c4)c23)CC1 [Example 47, N-(3-chlorophenyl)-2-[2-(4-methylpiperazin-1-yl)ethyl]-4,5-dihydro-2H-pyrimido[5′,4′:4,5]thieno[2,3-e]indazol-6-amine] | ≤ 5 | 
20 | OC[C@H](O)Cn1cc2c(n1)CCc1c-2sc2ncnc(Nc3ccc(OCc4ccccn4)c(Cl)c3)c12 [Example 350, 3-(6-{[3-chloro-4-(pyridin-2-ylmethoxy)phenyl]amino}-4,5-dihydro-2H-pyrimido[5′,4′:4,5]thieno[2,3-e]indazol-2-yl)propane-1,2-diol] | ≤ 5 | 
21 | OC[C@H](O)Cn1cc2c(n1)CCc1c-2sc2ncnc(Nc3ccc4c(cnn4Cc4cccc(F)c4)c3)c12 [Example 354, (2R)-3-(6-{[1-(3-fluorobenzyl)-1H-indazol-5-yl]amino}-4,5-dihydro-2H-pyrimido[5′,4′:4,5]thieno[2,3-e]indazol-2-yl)propane-1,2-diol] | ≤ 5 | 
